Numbers after ± are expanded uncertainties.
Details: Crystal; Heating/Cooling curves

| Normal melting temperature [°C] | Structure (SMILES) |
| --- | --- |
| 6.80 ± 0.2 | C1CCCCC1 [cyclohexane] |
| 29.2 ± 0.21 | O.O=P(O)(O)O.O=P(O)(O)O [phosphoric acid hemihydrate] |
